Experiments:
[1] = stabilization of THS into the bilayer phase at acidic pH (detergent/surfactant screening)
Description: Stabilizers are defined as compounds which allow the formation and/or maintenance of the bilayer state of d-alpha-tocopherol acid succinate based liposomes in an acidic pH environment.

[2] = cited from earlier work
[3] = freeze fracture electron microscopy / appearance of THS bilayers, effect of pH; format: physicochemical
Procedure: Characterizing the pH-dependent polymorphic nature of the THS is of importance in designing drug delivery systems comprising THS.
An aliquot (0.1-0.3 ul) of the 10% THS vesicle specimen was sandwiched between a pair of Balzers (Nashua, NH) copper support plates and rapidly plunged from 23° C. into liquid propane. Samples were fractured and replicated on a double replicating device in a Balzers freeze-fracture unit at a vacuum of 2×10^-6 mbar or better and at -115° C. Replicas were floated off in 3N HNO3, followed by washing in a graded series of Chlorox solutions. These were finally cleaned in distilled water and picked up on 300 Hex mesh copper grids (Polysciences, PA). Replicas were viewed on a Philips 300 electron microscope at a magnification of 22,000 times.

[4] = cited from earlier work; remark: listed apart in the source

sorbitan monolaurate
stabilization of THS into the bilayer phase [1]: do not stabilize the preparations

CC[C@@H]1C(=O)OC[C@@H]1Cc1cncn1C [pilocarpine]
chemical stability at high pH ([2]; high pH, base-catalyzed hydrolysis): unstable at high pH | chemical stability at lower pH ([2]; lower pH (protonated)): more stable | chemical stability in pilocarpine and THS mixtures ([2]; pH values around 7.0): chemically unstable

CCCCCCCCCCCCCCCCCC(=O)OCC(O)CO (centres unmarked) [glycerol monostearate]
stabilization of THS into the bilayer phase [1]: do not stabilize the preparations

Cc1c(C)c2c(c(C)c1OC(=O)CCC(=O)O)CC[C@@](C)(CCC[C@H](C)CCC[C@H](C)CCCC(C)C)O2 [THS, d-alpha-tocopherol acid succinate]
precipitation upon lowering the pH ([3]; lowered pH, no stabilizer): precipitates resembling hexII phase lipid are formed | vesicle morphology by freeze fracture electron microscopy ([3]; pH 7.0): heterogenous population of multilamellar and unilamellar vesicles | pH range in which aqueous suspensions are in the bilayer phase ([4]; aqueous suspension): 6.0-9.0 pH | phase formed on lowering the pH below about 6.0 or introducing divalent cations ([4]; pH below about 6.0 or Mg++ or Ca++): produces vesicle aggregation and fusion, and induces hexagonal phase (hexII) formation

sorbitan monopalmitate
stabilization of THS into the bilayer phase [1]: do not stabilize the preparations

Cc1c(C)c2c(c(C)c1OC(=O)CCC(=O)O)CCC(C)(CCCC(C)CCCC(C)CCCC(C)C)O2 (centres unmarked) [t-THS, tris(hydroxymethyl)aminomethane)-tocopherol hemisuccinate]
trapping efficiency of closed multilamellar vesicles ([4]; physiological pH): high trapping efficiencies

Source: patent publication US5364631A, “Tocopherol-based pharmaceutical systems” (The Liposome Company, Inc., priority 1993, dated 1994)
